# Assay results as given in EP4772514A1, “MACROCYCLIC COMPOUNDS, PREPARATION METHOD THEREFOR, AND USE THEREOF” (Genfleet Therapeutics (Shanghai) Inc., priority 2023, dated 2025).
# System: p-ERK
# Test: Cell p-ERK assay (HTRF, Advance ERK phospho-T202/Y204 kit) in NCI-H441 cells
# Assay type: cell-based
# Settings: Homo sapiens, NCI-H441, 3 h, NCI-H441, human non-small cell lung cancer cell strain, KRAS G12V mutation; 3 h compound incubation
# Experimental: AsPC-1 cells were purchased from ATCC, Cat. No. CRL-1682; NCI-H441 cells were purchased from ATCC, Cat. No. HTB-174; RPMI-1640 medium was purchased from Gibco, Cat. No. 11875-093; FBS was purchased from Gibco, Cat. No. 10099-141C; penicillin/streptomycin double-antibiotic solution (PS) was purchased from Gibco, Cat. No. 15140-122; trypsin (containing EDTA) was purchased from Gibco, Cat. No. 25200-072; DMSO was purchased from VWRAMRESCO, Cat. No. 0231-500ML; 96-well cell culture plates were purchased from Corning, Cat. No. 3599; white-bottomed, opaque 96-well plates were purchased from Cisbio, Cat. No. 66PL96025; Advance ERK phospho-T202/Y204 kit was purchased from Cisbio, Cat. No. 64AERPEH; cell counter was purchased from CHEMOMETEC, model: NC-200; microplate reader was purchased from PerkinElmer, model: EnVision.
# AsPC-1, a human pancreatic cancer cell strain endogenously containing a KRAS^G12D mutation, was cultured in a complete medium containing RPMI-1640 + 10% FBS + 1% PS. NCI-H441, a human non-small cell lung cancer cell strain endogenously containing a KRAS^G12V mutation, was cultured in a complete medium containing RPMI-1640 + 10% FBS + 1% PS.
# The cells were digested with trypsin (containing EDTA), collected in their corresponding complete media, and counted. The density of the cell suspensions was adjusted with their corresponding complete media, and AsPC-1 cells (10000 cells/well) or NCI-H441 cells (20000 cells/well) were seeded into a 96-well cell culture plate, with the volume of the medium in each well being 80 µL. The cell culture plate was incubated in an incubator at 37 °C with 5% CO2 overnight. A series of 3.16-fold gradient dilutions of a 1000× compound stock solution were prepared with DMSO, and then diluted 200-fold with the complete medium described above to give 5× compound stock solutions. On the day after cell seeding, 20 µL of the 5× compound stock solution was added to each cell culture well. As a result, the final concentration of the compound in the cell culture well became 1×, and the DMSO content in the well was 0.1%. In addition to the compound-treated wells described above, cell-containing DMSO control wells were also set. A complete medium containing 0.5% DMSO was added at 20 µL/well. After the mixture was well mixed, the culture plate was incubated in the incubator at 37 °C with 5% CO2 for another 3 h. The medium was then removed from the culture wells, and 50 µL of cell lysis buffer (from Advance ERK phospho-T202/Y204 kit) was added to each well. The mixture was well mixed, incubated for 30 min, and then transferred to a white-bottomed, opaque 96-well assay plate at 16 µL/well, and separately, 16 µL of cell lysis buffer was added to additional wells (serving as blank wells) in the assay plate. After the transfer was completed, 4 µL of p-ERK HTRF antibody mixture (from Advance ERK phospho-T202/Y204 kit) was added to each well of the assay plate, followed by a 4-hour incubation. The HTRF signal values (RLU) were then measured using a microplate reader, and the inhibition rate of the compound against p-ERK levels was calculated as follows: IR(%) = (RLUDMSO - RLUcompound)/(RLUDMSO - RLUblank) × 100%, where RLUDMSO is the average HTRF signal value from the DMSO control well samples, RLU is the average HTRF signal value from the blank well samples, and RLUcompound is the HTRF signal value from the compound-treated well samples. Using an XLfit software, the IR(%) values were plotted against the logarithm of the compound concentrations, and the dose-response curves were fitted using the four-parameter method to calculate the IC50 values.
row,Compound,IC50 [nM]
1,"CO[C@@H](C)c1ncc(C#CCN2CCS(=O)(=O)CC2)cc1-c1c2c(nn1C(C)C)/C=C/c1csc(n1)C[C@H](NC(=O)[C@H](C(C)C)N(C)c1ccc3ccccc3c1)C(=O)N1CCC[C@H](N1)C(=O)OCC(C)(C)C2 (atropisomer, axis not shown; (Ra)) [Compound Z60]",261
2,"CCn1nc2c(c1-c1cc(C#CCN3CCS(=O)(=O)CC3)cnc1[C@H](C)OC)CC(C)(C)COC(=O)[C@@H]1CCCN(N1)C(=O)[C@@H](NC(=O)[C@H](C(C)C)N(C)c1ccncc1)Cc1nc(cs1)/C=C/2 (atropisomer, axis not shown; (Ra)) [Compound Z122, (2S)-N-((4^2Z,8^3S,2E,6S)-(Ra)-1^5-(5-(3-(1,1-dioxidothiomorpholino)prop-1-yn-1-yl)-2-((S)-1-methoxyethyl)pyridin-3-yl)-1^1-ethyl-12,12-dimethyl-7,9-dioxo-8^1,8^2,8^3,8^4,8^5,8^6-hexahydro-1^1H-10-oxa-4(4,2)-thiazola-8(1,3)-pyridazina-1(3,4)-pyrazolocyclotridec-2-en-6-yl)-3-methyl-2-(methyl(pyridin-4-yl)amino)butanamide]",181
3,"CO[C@@H](C)c1ncc(C#CCN2CCS(=O)(=O)CC2)cc1-c1c2c(nn1C(C)C)/C=C/c1csc(n1)C[C@H](NC(=O)[C@H](C(C)C)N(C)C(=O)Cc1cccc3ccsc13)C(=O)N1CCC[C@H](N1)C(=O)OCC(C)(C)C2 (single isomer, unassigned) [Compound Z120]",513
4,"COC[C@H]1CCN1C(=O)N[C@H]1Cc2nc(cs2)/C=C/c2nn(C(C)C)c(-c3cc(C#CCN4CCS(=O)(=O)CC4)cnc3[C@H](C)OC)c2CC(C)(C)COC(=O)[C@@H]2CCCN(N2)C1=O [Compound Z41, (2R)-N-((4^2Z,8^3S,2E,6S)-1^5-(5-(3-(1,1-dioxidothiomorpholino)prop-1-yn-1-yl)-2-((S)-1-methoxyethyl)pyridin-3-yl)-1^1-isopropyl-12,12-dimethyl-7,9-dioxo-8^1,8^2,8^3,8^4,8^5,,8^6-hexahydro-1^1H-10-oxa-4(4,2)-thiazola-8(1,3)-pyridazina-1(3,4)-pyrrolacyclotridecaphan-2-en-6-yl)-2-(methoxymethyl)azetidine-1-carboxamide]",356

# These reach a lower IC50. Values come first.
row,IC50 [nM],Compound
1,55.7,"CCn1nc2c(c1-c1cc(C#CCN3CCS(=O)(=O)CC3)cnc1[C@H](C)OC)CC(C)(C)COC(=O)[C@@H]1CCCN(N1)C(=O)[C@@H](NC(=O)[C@H](C(C)C)N(C)C1CCCC1)Cc1nc(cs1)/C=C/2 (atropisomer, axis not shown; (Ra)) [Compound Z58, (2S)-2-(cyclopentyl(methyl)amino)-N-((4^2Z,8^3S,2E,6S)-(Ra)-1^5-(5-(3-(1,1-dioxidothiomorpholine)prop-1-yn-1-yl)-2-((S)-1-methoxyethyl)pyridin-3-yl)-1^1-ethyl-12,12-dimethyl-7,9-dioxo-8^1,8^2,8^3,8^4,8^5,8^6-hexahydro-1^1H-10-oxa-4(4,2)-thiazola-8(1,3)-pyridazina-1(3,4)-pyrazolecyclotridec-2-en-6-yl)-3-methylbutanamide]"
2,49.2,"CO[C@@H](C)c1ncc(C#CCN2CCS(=O)(=O)CC2)cc1-c1c2c(nn1C(C)C)/C=C/c1csc(n1)C[C@H](NC(=O)[C@H](C(C)C)N(C)c1cccc(C)c1)C(=O)N1CCC[C@H](N1)C(=O)OCC(C)(C)C2 (atropisomer, axis not shown; (Ra)) [Compound Z59, (2S)-N-((4^2Z,8^3S,2E,6S)-1^5-(Ra)-(5-(3-(1,1-dioxidothiomorpholino)prop-1-yn-1-y1)-2-((S)-1-methoxyethyl)pyridin-3-yl)-1^1-isopropyl-12,12-dimethyl-7,9-dioxo-8^1,8^2,8^3,8^4,8^5,8^6-hexahydro-1^1H-10-oxa-4(4,2)-thiazola-8(1,3)-pyridazina-1(3,4)-pyrazolocyclotridec-2-en-6-yl)-3-methyl-2-(methyl(m-tolyl)amino)butanamide]"
3,69.9,"CO[C@@H](C)c1ncc(C#CCN2CCS(=O)(=O)CC2)cc1-c1c2c(nn1C(C)C)/C=C/c1csc(n1)C[C@H](NC(=O)[C@H](C(C)C)N(C)c1ccc(C)cc1)C(=O)N1CCC[C@H](N1)C(=O)OCC(C)(C)C2 (atropisomer, axis not shown; (Ra)) [Compound Z61, (2S)-N-((4^2Z,8^3S,2E,6S)-1^5-(Ra)-(5-(3-(1,1-dioxidothiomorpholino)prop-1-yn-1-yl)-2-((S)-1-methoxyethyl)pyridin-3-yl)-1^1-isopropyl-12,12-dimethyl-7,9-dioxo-8^1,8^2,8^3,8^4,8^5,8^6-hexahydro-1^1H-10-oxa-4(4,2)-thiazola-8(1,3)-pyridazina-1(3,4)-pyrazolocyclotridec-2-en-6-yl)-3-methyl-2-(methyl(p-tolyl)amino)butanamide]"
4,4.63,"CCn1nc2c(c1-c1cc(C#CCN3CCS(=O)(=O)CC3)cnc1[C@H](C)OC)CC(C)(C)COC(=O)[C@@H]1CCCN(N1)C(=O)[C@@H](NC(=O)[C@H](C(C)C)N(C)c1cccnc1)Cc1nc(cs1)/C=C/2 (atropisomer, axis not shown; (Ra)) [Compound Z123, (2S)-N-((4^2Z,8^3S,2E,6S)-(Ra)-1^5-(5-(3-(1,1-dioxidothiomorpholino)prop-1-yn-1-yl)-2-((S)-1-methoxyethyl)pyridin-3-yl)-1^1-ethyl-12,12-dimethyl-7,9-dioxo-8^1,8^2,8^3,8^4,8^5,8^6-hexahydro-1^1H-10-oxa-4(4,2)-thiazola-8(1,3)-pyridazina-1(3,4)-pyrazolocyclotridec-2-en-6-yl)-3-methyl-2-(methyl(pyridin-3-yl)amino)butanamide]"
5,2.05,"CCn1nc2c(c1-c1cc(C#CCN3CCS(=O)(=O)CC3)cnc1[C@H](C)OC)CC(C)(C)COC(=O)[C@@H]1CCCN(N1)C(=O)[C@@H](NC(=O)[C@H](C(C)C)N(C)c1ccc(F)cc1)Cc1nc(cs1)/C=C/2 (atropisomer, axis not shown; (Ra)) [Compound Z124, (2S)-N-((4^2Z,8^3S,2E,6S)-(Ra)-1^5-(5-(3-(1,1-dioxidomorpholinyl)prop-1-yn-1-yl)-2-((S)-1-methoxyethyl)pyridin-3-yl)-1^1-ethyl-12,12-dimethyl-7,9-dioxo-8^1,8^2,8^4,8^5,8^6-hexahydro-1^1H-10-oxa-4(4,2)-thiazola-8(1,3)-pyridazina-1(3,4)-pyrrolacyclotridecaphan-2-en-6-yl)-2-[(4-fluorophenyl)(methyl)amino]-3-methylbutanamide]"
6,104,"CCn1nc2c(c1-c1cc(C#CCN3CCS(=O)(=O)CC3)cnc1[C@H](C)OC)CC(C)(C)COC(=O)[C@@H]1CCCN(N1)C(=O)[C@@H](NC(=O)[C@@H](Cc1ccccc1)C(C)C)Cc1nc(cs1)/C=C/2 (atropisomer, axis not shown; (Ra)) [Compound Z127, (2S)-2-benzyl-N-((4^2Z,8^3S,2E,6S)-(Ra)-1^5-(5-(3-(1,1-dioxidothiomorpholino)prop-1-yn-1-yl)-2-((S)-1-methoxyethyl)pyridin-3-yl)-1^1-ethyl-12,12-dimethyl-7,9-dioxo-8^1,8^2,8^3,8^4,8^5,8^6-hexahydro-1^1H-10-oxa-4(4,2)-thiazola-8(1,3)-pyridazina-1(3,4)-pyrrolacyclotridecaphan-2-en-6-yl)-3-methylbutanamide]"
